Among the data in ChEMBL document CHEMBL4699602, “Stapled and Xenopus Glucagon-Like Peptide 1 (GLP-1)-Based Dual GLP-1/Gastrin Receptor Agonists with Improved Metabolic Benefits in Rodent Models of Obesity and Diabetes” (J Med Chem, 2020) are EC50 values, retold here.

As a reminder, the pEC50 is −log10 of the EC50, conventionally taken in molar units.

pEC50: −log10 of the molar value. Where a SMILES comes first, the peptide text is derived from it.

The target of the assay is Glucagon-like peptide 1 receptor (Homo sapiens, UniProt P43220). The assay is described as follows: Agonist activity at human GLP-1R expressed in HEK293 cells assessed as stimulation of cAMP accumulation incubated for 20 mins. Type of assay: functional, cell-based. A general note: cAMP levels reflect the balance of adenylyl cyclase and phosphodiesterase activity.
Chain of Glucagon-like peptide 1 receptor (P43220 whole entry): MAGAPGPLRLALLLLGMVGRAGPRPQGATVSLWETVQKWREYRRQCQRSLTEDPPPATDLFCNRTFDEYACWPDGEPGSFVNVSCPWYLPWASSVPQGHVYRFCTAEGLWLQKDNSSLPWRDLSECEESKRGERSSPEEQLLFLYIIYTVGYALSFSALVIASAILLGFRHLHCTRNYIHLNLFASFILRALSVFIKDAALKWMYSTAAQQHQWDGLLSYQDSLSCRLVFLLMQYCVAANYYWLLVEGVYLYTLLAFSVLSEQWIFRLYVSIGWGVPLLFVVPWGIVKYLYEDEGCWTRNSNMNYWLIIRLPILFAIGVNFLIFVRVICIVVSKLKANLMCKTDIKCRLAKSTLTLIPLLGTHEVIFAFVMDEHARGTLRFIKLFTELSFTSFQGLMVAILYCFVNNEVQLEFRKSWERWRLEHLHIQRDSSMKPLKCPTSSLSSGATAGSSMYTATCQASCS
With `CC[C@H](C)[C@H](NC(=O)[C@H](CC(C)C)NC(=O)[C@H](Cc1c[nH]c2ccccc12)NC(=O)[C@H](CCC(=O)O)NC(=O)[C@@H](NC(=O)[C@H](Cc1ccccc1)NC(=O)[C@H](CCC(=O)O)NC(=O)[C@H](CCCCN)NC(=O)[C@H](CS)NC(=O)[C@H](C)NC(=O)[C@H](CCC(=O)O)NC(=O)[C@H](CCC(=O)O)NC(=O)[C@H](CCC(=O)O)NC(=O)[C@H](CC(C)C)NC(=O)[C@H](Cc1ccc(O)cc1)NC(=O)[C@H](CS)NC(=O)[C@@H](NC(=O)[C@@H](NC(=O)[C@H](CC(=O)O)NC(=O)[C@H](CC(N)=O)NC(=O)[C@@H](NC(=O)[C@H](Cc1ccc(O)cc1)NC(=O)[C@@H](NC(=O)CNC(=O)[C@H](CCC(=O)O)NC(=O)C(C)(C)NC(=O)[C@@H](N)Cc1c[nH]cn1)[C@@H](C)O)[C@@H](C)O)C(C)C)[C@@H](C)O)[C@@H](C)CC)C(=O)N[C@@H](CCCCN)C(=O)NCC(=O)N[C@@H](CCCCN)C(N)=O` (HELM PEPTIDE1{H.[Aib].E.G.T.Y.T.N.D.V.T.C.Y.L.E.E.E.A.C.K.E.F.I.E.W.L.I.K.G.K.[am]}$$$$V2.0), the pEC50 is 9.59. In the case of `CC[C@H](C)[C@H](NC(=O)[C@H](CC(C)C)NC(=O)[C@H](Cc1c[nH]c2ccccc12)NC(=O)[C@H](CCC(=O)O)NC(=O)[C@@H](NC(=O)[C@H](Cc1ccccc1)NC(=O)[C@H](CCC(=O)O)NC(=O)[C@H](CS)NC(=O)[C@H](C)NC(=O)[C@H](C)NC(=O)[C@H](CCC(=O)O)NC(=O)[C@H](CCC(=O)O)NC(=O)[C@H](CCC(=O)O)NC(=O)[C@H](CC(C)C)NC(=O)[C@H](CS)NC(=O)[C@H](CCC(=O)O)NC(=O)[C@@H](NC(=O)[C@@H](NC(=O)[C@H](CC(=O)O)NC(=O)[C@H](CC(N)=O)NC(=O)[C@@H](NC(=O)[C@H](Cc1ccc(O)cc1)NC(=O)[C@@H](NC(=O)CNC(=O)[C@H](CCC(=O)O)NC(=O)C(C)(C)NC(=O)[C@@H](N)Cc1c[nH]cn1)[C@@H](C)O)[C@@H](C)O)C(C)C)[C@@H](C)O)[C@@H](C)CC)C(=O)N[C@@H](CCCCN)C(=O)NCC(=O)N[C@@H](CCCCN)C(=O)N1CCC[C@H]1C(=O)N[C@@H](CO)C(=O)N[C@@H](CO)C(=O)NCC(=O)N[C@@H](C)C(=O)N1CCC[C@H]1C(=O)N1CCC[C@H]1C(=O)N1CCC[C@H]1C(=O)N[C@@H](CO)C(N)=O` (HELM PEPTIDE1{H.[Aib].E.G.T.Y.T.N.D.V.T.E.C.L.E.E.E.A.A.C.E.F.I.E.W.L.I.K.G.K.P.S.S.G.A.P.P.P.S.[am]}$$$$V2.0) it was 9.72; in that of `CC[C@H](C)[C@H](NC(=O)[C@H](CC(C)C)NC(=O)[C@H](Cc1c[nH]c2ccccc12)NC(=O)[C@H](CCC(=O)O)NC(=O)[C@@H](NC(=O)[C@H](Cc1ccccc1)NC(=O)[C@H](CCC(=O)O)NC(=O)[C@H](CS)NC(=O)[C@H](C)NC(=O)[C@H](C)NC(=O)[C@H](CCC(=O)O)NC(=O)[C@H](CCC(=O)O)NC(=O)[C@H](CCC(=O)O)NC(=O)[C@H](CC(C)C)NC(=O)[C@H](CS)NC(=O)[C@H](CCC(=O)O)NC(=O)[C@@H](NC(=O)[C@@H](NC(=O)[C@H](CC(=O)O)NC(=O)[C@H](CC(N)=O)NC(=O)[C@@H](NC(=O)[C@H](Cc1ccc(O)cc1)NC(=O)[C@@H](NC(=O)CNC(=O)[C@H](CCC(=O)O)NC(=O)C(C)(C)NC(=O)[C@@H](N)Cc1c[nH]cn1)[C@@H](C)O)[C@@H](C)O)C(C)C)[C@@H](C)O)[C@@H](C)CC)C(=O)N[C@@H](CCCCN)C(=O)NCC(=O)N[C@@H](CCCCN)C(N)=O` (HELM PEPTIDE1{H.[Aib].E.G.T.Y.T.N.D.V.T.E.C.L.E.E.E.A.A.C.E.F.I.E.W.L.I.K.G.K.[am]}$$$$V2.0), 9.31.
